# Source: US11834450B2, “Compounds having ((3-nitrophenyl)sulfonyl)acetamide as BCL-2 inhibitors” (Eil Therapeutics, Inc., priority 2021, dated 2023)
# Read-outs that look alike come from different tables or passages of the source.
# Columns and labels:
# [1] = Cell viability assay HEK293 (CellTiter-Glo); assay type: cell-based; conditions: human, HEK293 cells, read-out: HEK293 (CC50 code)
# Protocol: (§1) Assay Condition: Used culture medium for HEK293-DMEM (PanEco, Cat #C420), for the rest of the cell lines—culture medium RPMI-1640 (PanEco, Cat #C363).
# (§2) Assay Procedure: Compounds were prepared as 200× stocks with serial dilution in 100% DMSO with a final concentration of 1×. Dispersed 40 μl in 384-well plates at a concentration of 2000 cells per well for HEK293 and at a concentration of 4000 cells per well for the rest of the cell lines using a robotic station Biomek (Beckman). Before adding compounds, the cells were incubated at 37° C. (HEK293 were incubated for a day before adding compounds).
# (§3) A dilution plate was prepared by pouring 78 μl of the appropriate culture medium using a robotic station Biomek (Beckman). Sequentially, using a robotic station, 2 μl of substances were taken and added to 78 μl of culture medium (dilution of compounds 40×). Took from there 10 μl and added to the plates to the cells (dilution of compounds 5×). The plates were incubated for 3 days at a temperature 37° C. After 3 days, 10 μl of CellTiter-Glo (Promega) was added to the cells and the luminescence was measured.
# [2] = system: MOLT-4 cells; test: Cell viability assay MOLT-4 (CellTiter-Glo); assay type: cell-based; conditions: Homo sapiens, read-out: MOLT-4 (CC50 code)
# Protocol: as §1, §2, §3
# [3] = target: T1, BCL-2 (Homo sapiens, UniProt P10415); test: BCL-2 TR-FRET Assay (primary PPI inhibition); assay type: binding; conditions: 60 min incubation; read-out: BCL2 (IC50 code, BCL-2 TR-FRET)
# T1 construct: purchased BPS Bioscience #50222
# [4] = system: caspase-3 and -7 activities in RS4-11 cells; test: Cas-3/7 activation (Caspase-Glo 3/7) in RS4-11 cells; assay type: cell-based; conditions: Homo sapiens, 3.5 h at 37° C. and 30 min at r.t., read-out: Cas-3/7 (EC50 code)
# Protocol: Assay Principle: The Caspase-Glo 3/7 Assay is homogeneous, luminescent assay that measures caspase-3 and -7 activities. The assay provides a luminogenic caspase-3/7 substrate, which contains the tetrapeptide sequence DEVD, in a reagent optimized for caspase activity.
# Assay Procedure: Incubate RS4-11 cells with varying concentrations of test compounds for 3.5 h in a humidified incubator at 37° C. and 5% CO2 and 30 min at r.t. Add 15 μl Caspase-Glo reagent to each well and incubate the plate for 30 min at r.t. Read on ClarioStar Plus instrument.
# Materials: Promega Caspase-Glo (Promega, #8212); Frozen RS4-11 cells; 384-well white plate (Corning, #3570).
# Instrumentation: ClarioStar Plus; Biomek FX for liquid handling (Beckman Coulter).
# [5] = target: T2, BCL-XL (Homo sapiens, UniProt Q07817); test: BCL-XL TR-FRET Assay (primary PPI inhibition); assay type: binding; conditions: 60 min incubation; read-out: BCLxL (IC50 code, BCL-XL TR-FRET)
# T2 construct: purchased BPS Bioscience #50223
# Protocol: BCL-XL TR-FRET Assay (BPS Bioscience, #50223) Assay Condition: The following assay concentrations and times were used: 10.5 ng BCL-XL, 5 ul of 1:100 anti-His Tb-labeled donor, 5 ul of 1:100 Dye-labeled acceptor, 5 ul of 1:80 BCL-XL Peptide Ligand, and 2 ul of test compound, with 60 min incubation time. The results of the assay were read using a Clariostar (BMG Labtech) plate reader with the following parameters: TR FRET, 340 ex/620 and 665 em; 60 μsec Delay; and 500 μsec integration.
# [6] = system: RS4-11 cells; test: Cell viability assay RS4-11 (CellTiter-Glo); assay type: cell-based; conditions: Homo sapiens, read-out: RS4-11 (CC50 code)
# Protocol: as §1, §2, §3
# [7] = 72 h, MOLT-4 cells, 3 days, CellTiter-Glo
# [8] = 72 h, RS4-11 cells, 3 days, CellTiter-Glo
# T1 sequence (P10415 whole entry): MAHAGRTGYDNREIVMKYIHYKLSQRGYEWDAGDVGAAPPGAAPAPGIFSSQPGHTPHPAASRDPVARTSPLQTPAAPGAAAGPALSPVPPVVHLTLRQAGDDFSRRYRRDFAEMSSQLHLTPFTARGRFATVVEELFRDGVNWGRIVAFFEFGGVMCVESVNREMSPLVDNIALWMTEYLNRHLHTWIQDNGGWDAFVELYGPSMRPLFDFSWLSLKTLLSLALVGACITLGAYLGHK
# T2 sequence (Q07817 whole entry): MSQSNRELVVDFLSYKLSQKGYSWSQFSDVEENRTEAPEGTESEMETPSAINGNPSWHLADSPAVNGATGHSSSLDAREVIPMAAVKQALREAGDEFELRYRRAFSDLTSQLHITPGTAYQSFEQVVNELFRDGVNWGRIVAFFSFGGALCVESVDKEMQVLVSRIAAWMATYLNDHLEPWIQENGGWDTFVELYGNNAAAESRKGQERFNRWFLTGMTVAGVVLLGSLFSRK
SMILES,IC50 [3] [nM],EC50 [4] [nM],IC50 [5] [nM],CC50 at 3 days [1] [nM],"CC50 [2, 7] [nM]","CC50 [6, 8] [nM]","CC50 ([2]; MOLT-4, 72 h) [nM]","CC50 ([6]; RS4-11, 72 h) [nM]"
"O=C(NS(=O)(=O)c1ccc(NCC2CCOCC2)c([N+](=O)[O-])c1)c1ccc(N2CCN(C[C@H]3Cc4ccccc4CN3C(=O)c3ccsc3)CC2)cc1Oc1cnc2[nH]ccc2c1 [Compound 59, N-[3-nitro-4-(tetrahydropyran-4-ylmethylamino)phenyl]sulfonyl-2-(1H-pyrrolo[2,3-b]pyridin-5-yloxy)-4-[4-[[(3R)-2-(thiophene-3-carbonyl)-3,4-dihydro-1H-isoquinolin-3-yl]methyl]piperazin-1-yl]benzamide]",10 to 50,> 250,2000 to 4000,> 25000,2000 to 10000,> 200,,
"O=C(NS(=O)(=O)c1ccc(NCC2CCOCC2)c([N+](=O)[O-])c1)c1ccc(N2CCN(C[C@H]3Cc4ccccc4CN3C(=O)C3CC3)CC2)cc1Oc1cnc2[nH]ccc2c1 [Compound 33, 4-[4-[[(3R)-2-(cyclopropanecarbonyl)-3,4-dihydro-1H-isoquinolin-3-yl]methyl]piperazin-1-yl]-N-[3-nitro-4-(tetrahydropyran-4-ylmethylamino)phenyl]sulfonyl-2-(1H-pyrrolo[2,3-b]pyridin-5-yloxy)benzamide]",10 to 50,> 250,> 4000,> 25000,2000 to 10000,> 200,,
"O=C(NS(=O)(=O)c1ccc(NCC2CCOCC2)c([N+](=O)[O-])c1)c1ccc(N2CCC(CN3Cc4ccccc4C4(CCC4)C3)CC2)cc1Oc1cnc2[nH]ccc2c1 [Compound 46, N-[3-nitro-4-(tetrahydropyran-4-ylmethylamino)phenyl]sulfonyl-2-(1H-pyrrolo[2,3-b]pyridin-5-yloxy)-4-[4-(spiro[1,3-dihydroisoquinoline-4,1′-cyclobutane]-2-ylmethyl)-1-piperidyl]benzamide]",> 50,> 250,> 4000,> 25000,2000 to 10000,> 200,,
"O=C(NS(=O)(=O)c1ccc(NCC2CCOCC2)c([N+](=O)[O-])c1)c1ccc(N2CCN(CC(O)(c3ccccc3)c3ccccc3)CC2)cc1Oc1cnc2[nH]ccc2c1 [Compound 7, 4-[4-(2-hydroxy-2,2-diphenyl-ethyl)piperazin-1-yl]-N-[3-nitro-4-(tetrahydropyran-4-ylmethylamino)phenyl]sulfonyl-2-(1H-pyrrolo[2,3-b]pyridin-5-yloxy)benzamide]",10 to 50,> 250,> 4000,> 25000,2000 to 10000,> 200,,
"O=C(NS(=O)(=O)c1ccc(NCC2CCOCC2)c([N+](=O)[O-])c1)c1ccc(N2CCC(CN3C(=O)C4(CCCC4)C3c3cncc(Cl)c3)CC2)cc1Oc1cnc2[nH]ccc2c1 (stereo not drawn) [Compound 9, 4-[4-[[1-(5-chloro-3-pyridyl)-3-oxo-2-azaspiro[3.4]octan-2-yl]methyl]-1-piperidyl]-N-[3-nitro-4-(tetrahydropyran-4-ylmethylamino)phenyl]sulfonyl-2-(1H-pyrrolo[2,3-b]pyridin-5-yloxy)benzamide]",> 50,> 250,2000 to 4000,> 25000,,,2000 to 10000,> 200
"O=C(NS(=O)(=O)c1ccc(NCC2CCOCC2)c([N+](=O)[O-])c1)c1ccc(N2CCN(C[C@@H]3Cc4ccc(F)cc4CN3C(=O)C3CC3)CC2)cc1Oc1cnc2[nH]ccc2c1 [Compound 50, 4-[4-[[(3S)-2-(cyclopropanecarbonyl)-7-fluoro-3,4-dihydro-1H-isoquinolin-3-yl]methyl]piperazin-1-yl]-N-[3-nitro-4-(tetrahydropyran-4-ylmethylamino)phenyl]sulfonyl-2-(1H-pyrrolo[2,3-b]pyridin-5-yloxy)benzamide]",> 50,> 250,> 4000,> 25000,> 10000,> 200,,

# Second part, led by results:
IC50 [3] [nM],EC50 [4] [nM],IC50 [5] [nM],SMILES,CC50 at 3 days [1] [nM],"CC50 [2, 7] [nM]","CC50 [6, 8] [nM]","CC50 ([2]; MOLT-4, 72 h) [nM]","CC50 ([6]; RS4-11, 72 h) [nM]"
10 to 50,> 250,> 4000,"O=C(NS(=O)(=O)c1ccc(NCC2CCOCC2)c([N+](=O)[O-])c1)c1ccc(N2CCC(Cn3c(-c4ccc(Cl)cc4)nc4cccnc43)CC2)cc1Oc1cnc2[nH]ccc2c1 [Compound 51, 4-[4-[[2-(4-chlorophenyl)imidazo[4,5-b]pyridin-3-yl]methyl]-1-piperidyl]-N-[3-nitro-4-(tetrahydropyran-4-ylmethylamino)phenyl]sulfonyl-2-(1H-pyrrolo[2,3-b]pyridin-5-yloxy)benzamide]",> 25000,2000 to 10000,> 200,,
> 50,> 250,> 4000,"O=C(NS(=O)(=O)c1ccc(NCC2CCOCC2)c([N+](=O)[O-])c1)c1ccc(N2CCN(CC3Cc4ccc(Cl)cc4CN3C(=O)C3CC3)CC2)cc1Oc1cnc2[nH]ccc2c1 (stereo not drawn) [Compound 20, 4-[4-[[7-chloro-2-(cyclopropanecarbonyl)-3,4-dihydro-1H-isoquinolin-3-yl]methyl]piperazin-1-yl]-N-[3-nitro-4-(tetrahydropyran-4-ylmethylamino)phenyl]sulfonyl-2-(1H-pyrrolo[2,3-b]pyridin-5-yloxy)benzamide]",> 25000,2000 to 10000,> 200,,
> 50,> 250,2000 to 4000,"O=C(NS(=O)(=O)c1ccc(NC2CCOC2)c([N+](=O)[O-])c1)c1ccc(N2CCC(CN3CCCCC3c3ccc(Cl)cc3)CC2)cc1Oc1cnc2[nH]ccc2c1 (stereo not drawn) [Compound 63, 4-[4-[[2-(4-chlorophenyl)-1-piperidyl]methyl]-1-piperidyl]-N-[3-nitro-4-(tetrahydrofuran-3-ylamino)phenyl]sulfonyl-2-(1H-pyrrolo[2,3-b]pyridin-5-yloxy)benzamide]",> 25000,2000 to 10000,> 200,,
5 to 10,≤ 100,≤ 2000,"CC1(O)CC[C@@H](CN2CCN(c3ccc(C(=O)NS(=O)(=O)c4ccc(NCC5CCOCC5)c([N+](=O)[O-])c4)c(Oc4cnc5[nH]ccc5c4)c3)CC2)[C@H](c2ccc(Cl)cc2)C1 (stereo partly drawn) [Compound 52, 4-[4-[[(1R,2R)-2-(4-chlorophenyl)-4-hydroxy-4-methyl-cyclohexyl]methyl]piperazin-1-yl]-N-[3-nitro-4-(tetrahydropyran-4-ylmethylamino)phenyl]sulfonyl-2-(1H-pyrrolo[2,3-b]pyridin-5-yloxy)benzamide]",10000 to 25000,2000 to 10000,< 100,,
> 50,> 250,> 4000,"CC1(C)Cc2ccccc2CN1CC1CCN(c2ccc(C(=O)NS(=O)(=O)c3ccc(NCC4CCOCC4)c([N+](=O)[O-])c3)c(Oc3cnc4[nH]ccc4c3)c2)CC1 [Compound 38, 4-[4-[(3,3-dimethyl-1,4-dihydroisoquinolin-2-yl)methyl]-1-piperidyl]-N-[3-nitro-4-(tetrahydropyran-4-ylmethylamino)phenyl]sulfonyl-2-(1H-pyrrolo[2,3-b]pyridin-5-yloxy)benzamide]",,,,,
> 50,> 250,> 4000,"CC(C)C(=O)N1Cc2ccccc2C[C@@H]1CN1CCN(c2ccc(C(=O)NS(=O)(=O)c3ccc(NCC4CCOCC4)c([N+](=O)[O-])c3)c(Oc3cnc4[nH]ccc4c3)c2)CC1 [Compound 37, 4-[4-[[(3R)-2-(2-methylpropanoyl)-3,4-dihydro-1H-isoquinolin-3-yl]methyl]piperazin-1-yl]-N-[3-nitro-4-(tetrahydropyran-4-ylmethylamino)phenyl]sulfonyl-2-(1H-pyrrolo[2,3-b]pyridin-5-yloxy)benzamide]",,,,,
